Results from article PMC8426393, “Interactions of anti-COVID-19 drug candidates with hepatic transporters may cause liver toxicity and affect pharmacokinetics” (Scientific Reports, 2021).
Entries after “also recorded” stand apart in the source; their conditions may differ.

Assays:
[1] = biological target: T1, MATE1/SLC47A1 (Homo sapiens, UniProt Q96FL8); assay: MATE1-dependent metformin uptake in MATE1-overexpressing MDCKII cells; assay type: cell-based; conditions: metformin 10 µM, 10 min, 37 °C, MDCKII cells
T1 construct: expressed in transfected cells; host or cells: MDCKII cells, lentiviral transduction
T1 sequence (Q96FL8 1-570): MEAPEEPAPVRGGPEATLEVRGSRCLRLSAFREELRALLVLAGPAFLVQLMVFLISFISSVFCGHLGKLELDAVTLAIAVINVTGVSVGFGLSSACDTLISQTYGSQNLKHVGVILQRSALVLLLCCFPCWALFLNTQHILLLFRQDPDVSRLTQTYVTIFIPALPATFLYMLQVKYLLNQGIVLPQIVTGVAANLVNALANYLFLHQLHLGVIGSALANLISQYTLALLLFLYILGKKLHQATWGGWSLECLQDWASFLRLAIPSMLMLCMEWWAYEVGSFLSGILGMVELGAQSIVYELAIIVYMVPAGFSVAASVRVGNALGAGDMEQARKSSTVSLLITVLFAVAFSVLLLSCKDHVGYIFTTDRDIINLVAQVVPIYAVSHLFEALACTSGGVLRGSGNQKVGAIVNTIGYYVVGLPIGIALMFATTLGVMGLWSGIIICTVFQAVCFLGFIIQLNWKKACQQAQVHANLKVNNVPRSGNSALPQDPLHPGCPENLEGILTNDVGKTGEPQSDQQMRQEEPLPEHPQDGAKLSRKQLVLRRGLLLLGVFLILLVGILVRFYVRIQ

[2] = biological target: T2, ABCC2/MRP2 (Homo sapiens, UniProt Q92887); assay: MRP2 vesicular transport: ATP-dependent CDCF uptake into inverted Sf9 membrane vesicles; assay type: biochemical; conditions: CDCF 5 µM, 37 °C, 10 min, Sf9 vesicles
T2 construct: made in house; host or cells: Sf9 insect cells (baculovirus)

[3] = biological target: T3, OCT1/SLC22A1 (Homo sapiens, UniProt O15245); assay: OCT1-dependent metformin uptake in OCT1-overexpressing HEK-293 cells; assay type: cell-based
T3 construct: expressed in transfected cells; host or cells: HEK-293 cells, lentiviral transduction
T3 sequence (O15245 1-554): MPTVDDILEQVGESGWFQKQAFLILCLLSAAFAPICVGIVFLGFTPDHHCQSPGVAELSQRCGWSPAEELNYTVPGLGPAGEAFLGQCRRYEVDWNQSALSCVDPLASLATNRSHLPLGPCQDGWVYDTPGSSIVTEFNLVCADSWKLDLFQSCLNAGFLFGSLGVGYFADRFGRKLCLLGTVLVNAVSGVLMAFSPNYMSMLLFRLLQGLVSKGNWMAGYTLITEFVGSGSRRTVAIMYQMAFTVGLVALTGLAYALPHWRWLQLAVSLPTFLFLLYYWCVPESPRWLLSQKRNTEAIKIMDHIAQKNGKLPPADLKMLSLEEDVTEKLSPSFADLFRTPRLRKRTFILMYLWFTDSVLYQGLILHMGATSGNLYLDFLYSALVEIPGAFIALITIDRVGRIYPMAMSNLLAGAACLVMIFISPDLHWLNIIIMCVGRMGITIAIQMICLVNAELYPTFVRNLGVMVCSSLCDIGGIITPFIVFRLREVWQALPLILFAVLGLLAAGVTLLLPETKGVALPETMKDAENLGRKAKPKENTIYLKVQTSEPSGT

[4] = Kaletra 400 mg lopinavir and 100 mg ritonavir in combination; cited from earlier work
[5] = biological target: T4, ABCB11/BSEP (Homo sapiens, UniProt O95342); assay: BSEP vesicular transport: ATP- and glyburide-sensitive taurocholate uptake into inverted HEK-293 membrane vesicles; assay type: biochemical; conditions: taurocholate 2 µM, 37 °C, 10 min, HEK-293 vesicles
T4 construct: purchased Solvo Biotechnology (Budapest, Hungary); host or cells: HEK-293 cells

[6] = biological target: T5, ABCC4/MRP4 (Homo sapiens, UniProt O15439); assay: MRP4 vesicular transport: ATP-dependent DHEAS uptake into inverted HEK-293 membrane vesicles; assay type: biochemical; conditions: DHEAS 0.5 µM, 32 °C, […], HEK-293 vesicles
T5 construct: purchased Solvo Biotechnology (Budapest, Hungary); host or cells: HEK-293 cells
T5 sequence (O15439 1-1325): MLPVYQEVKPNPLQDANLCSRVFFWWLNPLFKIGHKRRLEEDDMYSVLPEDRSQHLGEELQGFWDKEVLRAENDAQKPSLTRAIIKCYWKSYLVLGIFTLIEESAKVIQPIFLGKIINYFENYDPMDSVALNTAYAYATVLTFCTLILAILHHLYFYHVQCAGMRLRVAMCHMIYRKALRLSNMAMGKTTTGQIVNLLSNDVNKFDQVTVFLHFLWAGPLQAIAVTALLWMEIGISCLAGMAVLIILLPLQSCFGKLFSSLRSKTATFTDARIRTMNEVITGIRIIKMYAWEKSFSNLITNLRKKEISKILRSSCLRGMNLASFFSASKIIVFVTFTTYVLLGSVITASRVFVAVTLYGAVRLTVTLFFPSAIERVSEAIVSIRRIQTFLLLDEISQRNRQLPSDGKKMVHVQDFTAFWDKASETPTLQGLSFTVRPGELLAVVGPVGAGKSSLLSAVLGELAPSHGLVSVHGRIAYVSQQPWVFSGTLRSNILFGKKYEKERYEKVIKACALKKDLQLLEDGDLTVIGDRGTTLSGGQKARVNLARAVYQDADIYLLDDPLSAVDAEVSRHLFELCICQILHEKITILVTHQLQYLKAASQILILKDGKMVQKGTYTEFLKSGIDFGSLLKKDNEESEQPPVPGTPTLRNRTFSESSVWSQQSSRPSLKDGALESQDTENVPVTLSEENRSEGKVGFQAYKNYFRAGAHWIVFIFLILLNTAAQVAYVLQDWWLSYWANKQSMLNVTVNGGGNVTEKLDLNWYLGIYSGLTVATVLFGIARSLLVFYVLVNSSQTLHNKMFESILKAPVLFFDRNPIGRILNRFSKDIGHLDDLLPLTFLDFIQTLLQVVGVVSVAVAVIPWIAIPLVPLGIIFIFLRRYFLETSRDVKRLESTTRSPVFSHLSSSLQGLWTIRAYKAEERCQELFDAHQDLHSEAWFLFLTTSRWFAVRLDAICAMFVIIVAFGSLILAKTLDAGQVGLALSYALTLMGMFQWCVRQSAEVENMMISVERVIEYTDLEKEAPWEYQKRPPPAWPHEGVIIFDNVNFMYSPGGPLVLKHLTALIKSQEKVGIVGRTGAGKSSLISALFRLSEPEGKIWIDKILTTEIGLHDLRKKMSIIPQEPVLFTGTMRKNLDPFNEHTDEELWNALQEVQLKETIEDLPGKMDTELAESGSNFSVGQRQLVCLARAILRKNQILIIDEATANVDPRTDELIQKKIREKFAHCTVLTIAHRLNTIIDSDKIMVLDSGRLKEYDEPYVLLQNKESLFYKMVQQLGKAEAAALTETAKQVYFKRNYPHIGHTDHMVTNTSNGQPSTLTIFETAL

[7] = biological target: T6, ABCC3/MRP3 (Homo sapiens, UniProt O15438); assay: MRP3 vesicular transport: ATP- and benzbromarone-sensitive CDCF uptake into inverted HEK-293 membrane vesicles; assay type: biochemical
T6 construct: purchased Solvo Biotechnology (Budapest, Hungary); host or cells: HEK-293 cells

[8] = test system: ABCG2/BCRP; set-up: method as in Telbisz et al., 2021; conditions: vesicular transporter assay, measured previously; ref Telbisz et al., 2021; cited from earlier work
[9] = test system: ABCB1/Pgp; set-up: method as in Telbisz et al., 2021; conditions: vesicular transporter assay, measured previously; ref Telbisz et al., 2021; cited from earlier work

T2 sequence (Q92887 whole entry): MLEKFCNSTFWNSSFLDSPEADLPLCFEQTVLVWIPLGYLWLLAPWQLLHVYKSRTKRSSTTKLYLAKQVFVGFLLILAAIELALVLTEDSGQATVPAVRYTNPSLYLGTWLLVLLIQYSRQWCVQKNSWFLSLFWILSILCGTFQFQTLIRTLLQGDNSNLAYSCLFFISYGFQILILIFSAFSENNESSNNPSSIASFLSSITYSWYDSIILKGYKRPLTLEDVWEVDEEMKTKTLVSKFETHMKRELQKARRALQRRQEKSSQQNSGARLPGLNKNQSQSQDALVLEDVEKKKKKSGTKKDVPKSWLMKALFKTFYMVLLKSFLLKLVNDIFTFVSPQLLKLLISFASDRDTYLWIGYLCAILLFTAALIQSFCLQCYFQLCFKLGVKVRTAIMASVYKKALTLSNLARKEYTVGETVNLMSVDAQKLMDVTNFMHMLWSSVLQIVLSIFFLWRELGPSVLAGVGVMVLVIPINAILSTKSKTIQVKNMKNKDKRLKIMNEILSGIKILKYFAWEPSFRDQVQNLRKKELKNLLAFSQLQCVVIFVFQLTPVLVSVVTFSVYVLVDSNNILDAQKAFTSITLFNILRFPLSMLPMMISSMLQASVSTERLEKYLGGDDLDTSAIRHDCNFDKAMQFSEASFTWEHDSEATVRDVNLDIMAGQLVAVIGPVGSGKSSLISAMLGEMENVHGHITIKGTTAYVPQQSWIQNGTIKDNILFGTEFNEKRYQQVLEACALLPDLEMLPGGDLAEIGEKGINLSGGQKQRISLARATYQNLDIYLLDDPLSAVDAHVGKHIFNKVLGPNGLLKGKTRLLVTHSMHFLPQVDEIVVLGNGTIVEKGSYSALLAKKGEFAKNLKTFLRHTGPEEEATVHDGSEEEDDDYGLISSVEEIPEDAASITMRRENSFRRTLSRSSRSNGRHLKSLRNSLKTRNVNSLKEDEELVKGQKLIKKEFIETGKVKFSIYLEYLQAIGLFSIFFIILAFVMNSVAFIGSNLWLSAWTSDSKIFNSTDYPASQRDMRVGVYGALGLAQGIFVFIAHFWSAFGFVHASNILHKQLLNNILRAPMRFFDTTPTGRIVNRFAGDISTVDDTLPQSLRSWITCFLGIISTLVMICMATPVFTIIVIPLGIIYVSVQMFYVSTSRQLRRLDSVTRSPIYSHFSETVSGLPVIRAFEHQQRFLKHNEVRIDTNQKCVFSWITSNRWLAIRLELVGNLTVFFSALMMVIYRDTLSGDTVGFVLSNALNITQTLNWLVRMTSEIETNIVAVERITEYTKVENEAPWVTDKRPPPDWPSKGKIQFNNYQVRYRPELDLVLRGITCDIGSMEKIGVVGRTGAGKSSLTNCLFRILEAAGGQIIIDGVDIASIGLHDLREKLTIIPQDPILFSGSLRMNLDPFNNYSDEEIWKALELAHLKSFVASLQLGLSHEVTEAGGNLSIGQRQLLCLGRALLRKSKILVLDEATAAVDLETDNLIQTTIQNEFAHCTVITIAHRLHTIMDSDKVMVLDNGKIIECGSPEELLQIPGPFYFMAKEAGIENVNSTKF
T4 sequence (O95342 whole entry): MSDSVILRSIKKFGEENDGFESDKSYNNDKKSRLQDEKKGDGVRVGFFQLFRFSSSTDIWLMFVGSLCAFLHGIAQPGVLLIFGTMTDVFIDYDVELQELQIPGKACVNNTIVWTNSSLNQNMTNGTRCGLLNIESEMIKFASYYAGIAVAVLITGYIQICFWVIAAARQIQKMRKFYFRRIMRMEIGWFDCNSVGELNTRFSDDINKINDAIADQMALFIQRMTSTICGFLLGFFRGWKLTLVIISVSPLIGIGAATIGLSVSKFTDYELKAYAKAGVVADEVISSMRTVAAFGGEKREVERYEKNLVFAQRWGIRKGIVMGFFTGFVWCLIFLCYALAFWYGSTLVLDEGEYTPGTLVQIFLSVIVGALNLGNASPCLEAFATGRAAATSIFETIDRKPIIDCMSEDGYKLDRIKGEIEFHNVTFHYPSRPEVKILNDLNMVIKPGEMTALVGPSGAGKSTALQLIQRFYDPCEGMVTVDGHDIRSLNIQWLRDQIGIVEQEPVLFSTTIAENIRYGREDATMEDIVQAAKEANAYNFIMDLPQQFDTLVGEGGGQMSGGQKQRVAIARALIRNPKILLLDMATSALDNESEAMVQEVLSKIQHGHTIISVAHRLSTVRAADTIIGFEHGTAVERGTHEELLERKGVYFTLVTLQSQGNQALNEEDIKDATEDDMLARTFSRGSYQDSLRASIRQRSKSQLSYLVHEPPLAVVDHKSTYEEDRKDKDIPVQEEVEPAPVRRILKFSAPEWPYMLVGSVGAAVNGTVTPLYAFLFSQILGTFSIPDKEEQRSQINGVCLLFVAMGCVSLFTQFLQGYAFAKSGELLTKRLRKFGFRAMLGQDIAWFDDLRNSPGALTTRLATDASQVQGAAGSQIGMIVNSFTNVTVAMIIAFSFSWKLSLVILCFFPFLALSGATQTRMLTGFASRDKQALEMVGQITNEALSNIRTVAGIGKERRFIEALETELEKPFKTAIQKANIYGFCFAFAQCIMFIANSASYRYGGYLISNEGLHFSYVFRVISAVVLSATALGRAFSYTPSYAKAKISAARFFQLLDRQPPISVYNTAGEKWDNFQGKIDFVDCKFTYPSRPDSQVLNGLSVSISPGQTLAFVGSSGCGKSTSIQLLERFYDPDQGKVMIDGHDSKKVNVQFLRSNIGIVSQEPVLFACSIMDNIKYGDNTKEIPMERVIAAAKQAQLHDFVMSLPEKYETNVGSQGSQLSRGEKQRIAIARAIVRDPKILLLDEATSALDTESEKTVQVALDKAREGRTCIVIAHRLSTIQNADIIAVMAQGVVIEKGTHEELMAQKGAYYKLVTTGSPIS
T6 sequence (O15438 whole entry): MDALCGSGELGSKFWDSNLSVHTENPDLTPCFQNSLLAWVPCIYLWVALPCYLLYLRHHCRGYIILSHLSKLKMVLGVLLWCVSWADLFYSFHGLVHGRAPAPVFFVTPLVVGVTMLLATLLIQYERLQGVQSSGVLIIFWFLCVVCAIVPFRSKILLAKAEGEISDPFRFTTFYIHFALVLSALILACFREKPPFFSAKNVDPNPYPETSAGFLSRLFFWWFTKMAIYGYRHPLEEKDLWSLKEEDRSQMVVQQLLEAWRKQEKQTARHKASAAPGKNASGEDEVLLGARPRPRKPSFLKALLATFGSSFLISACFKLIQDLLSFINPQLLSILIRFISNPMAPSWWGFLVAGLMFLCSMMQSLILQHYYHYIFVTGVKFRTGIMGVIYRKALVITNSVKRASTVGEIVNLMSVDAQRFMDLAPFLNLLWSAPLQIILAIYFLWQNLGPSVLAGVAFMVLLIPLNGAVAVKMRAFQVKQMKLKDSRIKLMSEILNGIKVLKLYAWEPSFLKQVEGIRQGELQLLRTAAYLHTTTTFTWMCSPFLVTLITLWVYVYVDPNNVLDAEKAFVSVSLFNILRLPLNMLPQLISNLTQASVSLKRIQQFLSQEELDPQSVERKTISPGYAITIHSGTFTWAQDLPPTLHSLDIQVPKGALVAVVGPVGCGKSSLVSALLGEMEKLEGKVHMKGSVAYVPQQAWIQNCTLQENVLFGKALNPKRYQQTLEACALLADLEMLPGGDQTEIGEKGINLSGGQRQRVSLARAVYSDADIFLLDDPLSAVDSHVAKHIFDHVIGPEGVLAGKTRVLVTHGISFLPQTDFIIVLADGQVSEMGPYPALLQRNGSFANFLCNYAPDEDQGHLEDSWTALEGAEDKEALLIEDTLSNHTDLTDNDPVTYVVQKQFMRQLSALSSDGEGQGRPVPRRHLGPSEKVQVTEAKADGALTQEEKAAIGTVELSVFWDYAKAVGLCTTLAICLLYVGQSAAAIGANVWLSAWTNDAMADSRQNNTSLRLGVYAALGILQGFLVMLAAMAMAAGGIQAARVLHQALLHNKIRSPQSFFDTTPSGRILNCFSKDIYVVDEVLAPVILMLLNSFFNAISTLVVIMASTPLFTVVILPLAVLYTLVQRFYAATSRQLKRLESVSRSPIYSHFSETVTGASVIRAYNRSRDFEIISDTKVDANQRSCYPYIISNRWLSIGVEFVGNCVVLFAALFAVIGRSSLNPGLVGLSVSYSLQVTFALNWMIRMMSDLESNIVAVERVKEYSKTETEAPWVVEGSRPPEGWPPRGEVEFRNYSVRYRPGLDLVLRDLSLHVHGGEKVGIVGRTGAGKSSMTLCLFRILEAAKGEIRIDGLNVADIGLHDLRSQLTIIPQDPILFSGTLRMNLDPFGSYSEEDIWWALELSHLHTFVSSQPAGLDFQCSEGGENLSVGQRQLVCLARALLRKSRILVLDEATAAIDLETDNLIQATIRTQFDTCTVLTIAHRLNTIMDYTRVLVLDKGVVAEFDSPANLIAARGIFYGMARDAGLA

With `CC(C)c1nc(CN(C)C(=O)N[C@H](C(=O)N[C@@H](Cc2ccccc2)C[C@H](O)[C@H](Cc2ccccc2)NC(=O)OCc2cncs2)C(C)C)cs1` [RIT, ritonavir] the “MATE1/SLC47A1 Type of effect” value [1] was “strong inhibitory action and inh”, the “ABCC2/MRP2 Type of effect” value [2] was “did not inhibit but rather increased the probe substrate transport at high concentrations; also recorded: Increase” and the “OCT1/SLC22A1 Type of effect” value ([3]; metformin 10 µM, 5 min, 37 °C, HEK-293 cells) was “strong inhibitory effect and inh”. For the same molecule, the “concentration of strong inhibitory effect on OCT1” value ([3]; metformin uptake) was “below 10 µM”, the “peak plasma concentrations in vivo” value [4] was 1 to 1.73 µM and the “ABCB11/BSEP Type of effect” value [5] was “strongly inhibited TC transport at low concentrations and inh”. The “ABCC4/MRP4 Type of effect” value [6] was “No effect”, the “ABCC3/MRP3 Type of effect” value ([7]; CDCF 5 µM, 37 °C, 10 min, HEK-293 vesicles) was “inh” and the “concentration at which MRP3 transport is inhibited” value ([7]; CDCF uptake) was “lower than 10 µM”. For the same molecule, the “ABCG2/BCRP type of effect” value [8] was “inh” and the “ABCB1/Pgp Type of effect” value [9] was “inh”.
